The results in this text go back to patent US20250162989A1, “USP30 INHIBITORS AND USES THEREOF” (Vincere Biosciences, Inc., priority 2021, published 2025).

The target in this assay is recombinant USP30 (amino acids 57-517 of the human sequence) (Homo sapiens (Human), UniProt Q70CQ3). Put plainly: In vitro USP30 biochemical assay (Ubiquitin-Rhodamine substrate). The conditions noted are these: fluorescence. How it is done:
In vitro biochemical assay to establish the potency of compounds for USP30 inhibition: a 384-well plate assay using a fluorophore tagged substrate of USP30 was used for in vitro screening of compounds. Each compound was tested at
10 different concentrations (0.5 to 10,000 nM) in duplicate wells. […] Data were analyzed using Graph Pad Prism software with a four-parameter (floating slope) fit to log concentration data to determine IC50s.

The mark [1] stands for this setting: […] recombinant USP30, 25 nM Ubiquitin-Rhodamine.
[2] abbreviates: 1.5 nM recombinant USP30, 25 nM Ubiquitin-Rhodamine.

Chain of recombinant USP30 (amino acids 57-517 of the human sequence) (Q70CQ3 57-517): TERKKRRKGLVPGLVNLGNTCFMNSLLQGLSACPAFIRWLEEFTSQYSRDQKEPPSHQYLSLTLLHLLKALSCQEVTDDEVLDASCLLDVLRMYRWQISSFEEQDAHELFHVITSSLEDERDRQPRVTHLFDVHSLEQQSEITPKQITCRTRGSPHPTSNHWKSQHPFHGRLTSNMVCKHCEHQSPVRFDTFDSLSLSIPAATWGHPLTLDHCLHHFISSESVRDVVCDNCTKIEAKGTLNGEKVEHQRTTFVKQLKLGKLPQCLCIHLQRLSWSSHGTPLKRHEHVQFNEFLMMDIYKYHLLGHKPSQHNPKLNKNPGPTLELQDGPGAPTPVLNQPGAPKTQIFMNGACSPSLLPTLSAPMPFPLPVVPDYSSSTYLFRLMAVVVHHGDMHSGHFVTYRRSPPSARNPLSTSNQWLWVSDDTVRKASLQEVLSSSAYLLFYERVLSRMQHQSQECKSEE

As for `CN1CCN(C(=O)N[C@@H](Cc2ccccc2)C(=O)Nc2cccc3c(S(=O)(=O)NC(C)(C)C)cccc23)CC1` [Compound I-198], the IC50 under setting [1] is greater than 10 µM.

In the case of `CC(C)(C)NS(=O)(=O)c1ccc(NC(=O)[C@H](Cc2ccccc2)NC(=O)c2c[nH]cn2)cc1` [Compound I-176], the IC50 under setting [1] is greater than 10 µM.

Take `CC(C)(CCO)NS(=O)(=O)c1ccc(NC(=O)[C@H](CC2CCOCC2)NC(=O)c2ccc(F)cc2)cc1` [Compound I-6]: the IC50 under setting [1] was less than 0.05 µM.

For `O=C(N[C@@H](Cc1ccccc1)C(=O)NC1CCN(C(=O)OCc2ccccc2)CC1)c1ccc(F)cc1` [Compound I-113], under setting [1], the IC50 was greater than 10 µM.

Turning to `CC(C)C[C@H](NC(=O)c1ccc(F)cn1)C(=O)Nc1ccc(S(=O)(=O)NC(C)(C)C(F)(F)F)cc1` [Compound I-204], the IC50 under setting [2] lay in the range of 0.05 to 1 µM.

On to `CC(C)(CN1CCOCC1)NS(=O)(=O)c1ccc(NC(=O)[C@H](CCO)NC(=O)c2ccc(F)cc2)cc1` [Compound I-30], for which the IC50 under setting [2] was 1 to 10 µM.

Take `CC(C)(CO)NS(=O)(=O)c1ccc(NC(=O)[C@H](CC2CC2)NC(=O)c2ccc(F)cc2)cc1` [Compound I-46]: the IC50 under setting [2] was 0.05 to 1 µM.

As for `CC(=O)O[C@H]1C[C@@H](C(=O)Nc2ccc(S(=O)(=O)NC(C)(C)C)cc2)N(C(=O)c2ccc(F)cc2)C1` [Compound I-285], under setting [2], the IC50 fell in the range of 1 to 10 µM.

Consider `O=C(Nc1ccc(S(=O)(=O)NC2COC2)cc1)[C@@H]1C[C@@H](O)CN1C(=O)c1ccc(F)cc1` [Compound I-276], for which the concentration for half-maximal inhibition (IC50) under setting [1] was greater than 10 µM.

For `CC(C)C[C@H](NC(=O)c1ccc(F)cc1)C(=O)Nc1ccc(S(=O)(=O)NC(C)(C)CO)nc1` [Compound I-17], the IC50 under setting [2] lay in the range of 0.05 to 1 µM.

On to `CC(C)CC[C@H](NC(=O)c1ccc(F)cc1)C(=O)Nc1ccc(S(=O)(=O)NC2COC2)cc1` [Compound I-24], for which, under setting [2], the half-maximal inhibitory concentration (IC50) was in the range of 0.05 to 1 µM.

Regarding `CC(C)(CO)NS(=O)(=O)c1ccc(NC(=O)[C@@H]2C[C@@H](C3CCCCC3)CN2C(=O)c2ccc(F)cc2)cn1` [Compound I-258], under setting [2], the IC50 fell in the range of 1 to 10 µM.

For the compound `CC(C)(C)NS(=O)(=O)c1ccc(NC(=O)[C@H](Cc2ccccc2)NC(=O)c2cc[nH]n2)cc1` [Compound I-178], the IC50 under setting [2] fell in the range of 1 to 10 µM.

On to `CC(C)(C)NS(=O)(=O)N1CC[C@@H](NC(=O)[C@H](Cc2ccccc2)NC(=O)c2ccc(F)cc2)C1` [Compound I-162], for which the IC50 under setting [1] was greater than 10 µM.

In the case of `CC(C)C[C@H](NC(=O)c1ccc(F)cc1)C(=O)Nc1ccc(S(=O)(=O)NCc2ccnn2C)cc1` [Compound I-225], the IC50 under setting [2] was 0.05 to 1 µM.

Turning to `COCCC(C)(C)NS(=O)(=O)c1ccc(NC(=O)[C@H](CC(C)C)NC(=O)c2ccc(F)cc2)cc1` [Compound I-18], under setting [2], the IC50 lay within 0.05 to 1 µM.

As for `CCN1CCC(C[C@H](NC(=O)c2ccc(F)cc2)C(=O)Nc2ccc(S(=O)(=O)NC(C)(C)CO)cc2)CC1` [Compound I-45], the IC50 under setting [2] lay in the range of 0.05 to 1 µM.

For the compound `CC1(NC(=O)[C@H](Cc2ccccc2)NC(=O)c2ccc(F)cc2)CN(C(=O)OCc2ccccc2)C1` [Compound I-252], the half-inhibitory concentration (IC50) under setting [1] is greater than 10 µM.

With `CC(C)(CN1CCOCC1)NS(=O)(=O)c1ccc(NC(=O)[C@H](CC2CC2)NC(=O)c2ccc(F)cc2)cc1` [Compound I-47], the IC50 under setting [2] is 0.05 to 1 µM.

Turning to `CC(C)(C)NS(=O)(=O)c1ccc(NC(=O)[C@H](Cc2ccccc2)NC(=O)c2ccc3nc[nH]c3c2)cc1` [Compound I-194], under setting [2], the IC50 lay in the range of 1 to 10 µM.

Turning to `COCC[C@H](NC(=O)c1ccc(F)cc1)C(=O)Nc1ccc(S(=O)(=O)NC(C)(C)CO)cc1` [Compound I-26], under setting [2], the concentration for half-maximal inhibition (IC50) fell in the range of 0.05 to 1 µM.

Consider `COCC[C@H](NC(=O)c1ccc(F)cc1)C(=O)Nc1ccc(S(=O)(=O)NC(C)(C)CN2CCOCC2)cc1` [Compound I-27], for which, under setting [2], the IC50 lay in the range of 1 to 10 µM.

Regarding `CC(C)(C)NS(=O)(=O)c1ccc(NC(=O)[C@H](CC2CCNCC2)NC(=O)c2ccc(F)cc2)cc1` [Compound I-40, (S)—N-(1-((4-(N-(tert-butyl)sulfamoyl)phenyl)amino)-1-oxo-3-(piperidin-4-yl)propan-2-yl)-4-fluorobenzamide], the IC50 under setting [2] was 0.05 to 1 µM.

With `COc1cc(NC(=O)[C@H](CC2CCOCC2)NC(=O)c2ccc(F)cc2)cnc1S(=O)(=O)NC1CCN(C)CC1` [Compound I-83], under setting [2], the half-inhibitory concentration (IC50) lay within 1 to 10 µM.

In the case of `CC(C)(C)NS(=O)(=O)c1ccc(NC(=O)[C@H](Cc2ccccc2)c2nnc(-c3ccc(F)cc3)o2)cc1` (stereo in doubt) [Compound I-56, N-(4-(N-(tert-butyl)sulfamoyl)phenyl)-2-(5-(4-fluorophenyl)-1,3,4-oxadiazol-2-yl)-3-phenylpropanamide], the IC50 under setting [2] lay within 1 to 10 µM.

With `CN1CCN(C(=O)N[C@@H](CC2CCNCC2)C(=O)Nc2ccc(S(=O)(=O)NC(C)(C)C)cc2)CC1` [Compound I-219], the IC50 under setting [1] was greater than 10 µM.

In the case of `COCCC(C)(C)NS(=O)(=O)c1ccc(NC(=O)[C@@H](CC(C)C)NC(=O)c2ccc(F)cc2)cc1` [Compound I-19], the IC50 under setting [2] fell in the range of 1 to 10 µM.

`CC(C)(CN1CCOCC1)NS(=O)(=O)c1ccc(NC(=O)[C@@H](NC(=O)c2ccc(F)cc2)C2CC2)cc1` [Compound I-53]: the IC50 under setting [2] lay in the range of 1 to 10 µM.

In the case of `CC(C)(CO)NS(=O)(=O)c1ccc(NC(=O)[C@@H]2C[C@H](O)CN2C(=O)c2ccc(F)cc2)cc1` [Compound I-280], the IC50 under setting [1] is greater than 10 µM.

For `CC(C)(C)NS(=O)(=O)c1ccc(NC(=O)[C@@H]2CCCN2C(=O)c2ccc(F)cc2)cc1` [Compound I-50, (S)—N-(4-(N-tert-butylsulfamoyl)phenyl)-1-(4-fluorobenzoyl)pyrrolidine-2-carboxamide], the concentration for half-maximal inhibition (IC50) under setting [2] fell in the range of 1 to 10 µM.

Turning to `O=C(N[C@@H](Cc1ccccc1)C(=O)Nc1ccc(S(=O)(=O)NC23CC(C2)C3)c(O)c1)c1ccc(F)cc1` [Compound I-64], the IC50 under setting [2] was in the range of 0.05 to 1 µM.

As for `COc1cc(NC(=O)[C@H](CC2CCNCC2)NC(=O)c2ccc(F)cc2)ccc1S(=O)(=O)NC1CCOCC1` [Compound I-135], under setting [2], the IC50 lay in the range of 0.05 to 1 µM.

Regarding `COCC[C@H](NC(=O)c1ccc(F)cc1)C(=O)Nc1ccc(S(=O)(=O)NC2COC2)cc1` [Compound I-28], under setting [2], the IC50 lay within 1 to 10 µM.

`CCNS(=O)(=O)c1cccc2c(NC(=O)[C@H](CC3CCOCC3)NC(=O)c3ccc(F)cc3)cccc12` [Compound I-9]: the concentration for half-maximal inhibition (IC50) under setting [2] was in the range of 0.05 to 1 µM.

For the compound `COC[C@H](NC(=O)c1ccc(F)cc1)C(=O)Nc1ccc(S(=O)(=O)NC2COC2)cc1` [Compound I-34], the IC50 under setting [2] was 1 to 10 µM.

`CC(C)(C)NS(=O)(=O)c1ccc(NC(=O)[C@H](Cc2ccccc2)NC(=O)c2ccc3nn[nH]c3c2)cc1` [Compound I-189]: under setting [2], the IC50 lay within 0.05 to 1 µM.

Consider `CN1CCC(C[C@H](NC(=O)c2ccc(F)cc2)C(=O)Nc2ccc(S(=O)(=O)NCc3ccnn3C)cc2)CC1` [Compound I-231], for which, under setting [2], the IC50 fell in the range of 0.05 to 1 µM.

As for `COc1cc(NC(=O)[C@@H]2C[C@@H](C3CCCCC3)CN2C(=O)c2ccc(F)cc2)ccc1S(=O)(=O)NC(C)(C)C` [Compound I-257], under setting [2], the IC50 fell in the range of 0.05 to 1 µM.

As to `CC(C)(CO)NS(=O)(=O)c1ccc(NC(=O)[C@@H](NC(=O)c2ccc(F)cc2)C2CC2)cc1` [Compound I-52], under setting [2], the half-maximal inhibitory concentration (IC50) fell in the range of 1 to 10 µM.

With `CC(C)(C)NS(=O)(=O)c1ccc(NC(=O)[C@@H](NC(=O)c2ccc(F)cc2)C(C)(C)C)cc1` [Compound I-77], the IC50 under setting [2] is 1 to 10 µM.

With `O=C(N[C@@H](Cc1ccccc1)C(=O)N[C@@H]1CCNC1)c1ccc(F)cc1` [Compound I-146], the half-inhibitory concentration (IC50) under setting [1] was greater than 10 µM.

As for `CN1CCC(C[C@H](NC(=O)c2ccc(F)cc2)C(=O)Nc2ccc(S(=O)(=O)NC3COC3)nc2)CC1` [Compound I-104], the IC50 under setting [2] was in the range of 1 to 10 µM.

By IC50 is commonly meant the concentration needed to halve the response being measured.
